Measurements as given in the supplement of paper PMC10307832.

Key:
Experiment in all cases: relative viability (nuclei count vs DMSO), 5 days (fraction); higher = more cells survive
CX-5461 + Tozasertib = compound: Cc1cnc(CNC(=O)c2c(=O)c3ccc(N4CCCN(C)CC4)nc3n3c2sc2ccccc23)cn1 [CX-5461] + Cc1cc(Nc2cc(N3CCN(C)CC3)nc(Sc3ccc(NC(=O)C4CC4)cc3)n2)n[nH]1 [Tozasertib] (partner 0.1 µM)
Procedure, shortened: (§1)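 Medians of duplicate plates are given as relative viability. That measure is the nuclei count in treated wells divided by the count in vehicle wells. Counts were taken on 4× images of lung cancer cell lines in 1536-well plates, 5 days after pin-tool dosing the day after seeding with one drug alone or a fixed anchor-drug dose plus five library-drug doses (not always all listed) in √10 steps.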

IMD-0354 + OSI-027 = compound: O=C(Nc1cc(C(F)(F)F)cc(C(F)(F)F)c1)c1cc(Cl)ccc1O [IMD-0354] + COc1cccc2cc(-c3nc([C@H]4CC[C@H](C(=O)O)CC4)n4ncnc(N)c34)[nH]c12 [OSI-027] (partner 0.5 µM)
Procedure, shortened: as §1

IMD-0354 + Dasatinib = compound: O=C(Nc1cc(C(F)(F)F)cc(C(F)(F)F)c1)c1cc(Cl)ccc1O [IMD-0354] + Cc1nc(Nc2ncc(C(=O)Nc3c(C)cccc3Cl)s2)cc(N2CCN(CCO)CC2)n1 [Dasatinib] (partner 0.075 µM)
Procedure, shortened: as §1

IMD-0354 + Pemetrexed = compound: O=C(Nc1cc(C(F)(F)F)cc(C(F)(F)F)c1)c1cc(Cl)ccc1O [IMD-0354] + Nc1nc2[nH]cc(CCc3ccc(C(=O)N[C@@H](CCC(=O)O)C(=O)O)cc3)c2c(=O)[nH]1 [Pemetrexed] (partner 0.2 µM)
Procedure, shortened: as §1

## UMC-11
CX-5461 + Tozasertib; first compound 0.01 µM
  relative viability: 0.189
CX-5461 + Tozasertib; first compound 0.03162 µM
  relative viability: 0.201
CX-5461 + Tozasertib; first compound 0.1 µM
  relative viability: 0.204
CX-5461 + Tozasertib; first compound 0.3162 µM
  relative viability: 0.198
CX-5461 + Tozasertib; first compound 1 µM
  relative viability: 0.243
IMD-0354 + OSI-027; first compound 0.04 µM
  relative viability: 0.57
IMD-0354 + OSI-027; first compound 0.1265 µM
  relative viability: 0.469
IMD-0354 + OSI-027; first compound 0.4 µM
  relative viability: 0.3
IMD-0354 + OSI-027; first compound 1.265 µM
  relative viability: 0.215
IMD-0354 + OSI-027; first compound 4 µM
  relative viability: 0.205
IMD-0354 + Dasatinib; first compound 0.04 µM
  relative viability: 0.541
IMD-0354 + Dasatinib; first compound 0.1265 µM
  relative viability: 0.416
IMD-0354 + Dasatinib; first compound 0.4 µM
  relative viability: 0.246
IMD-0354 + Dasatinib; first compound 1.265 µM
  relative viability: 0.171
IMD-0354 + Dasatinib; first compound 4 µM
  relative viability: 0.206
IMD-0354 + Pemetrexed; first compound 0.04 µM
  relative viability: 0.819
IMD-0354 + Pemetrexed; first compound 0.1265 µM
  relative viability: 0.692
IMD-0354 + Pemetrexed; first compound 0.4 µM
  relative viability: 0.281
IMD-0354 + Pemetrexed; first compound 1.265 µM
  relative viability: 0.205
IMD-0354 + Pemetrexed; first compound 4 µM
  relative viability: 0.219
